Reference: US20070042967A1, “Proteaseome inhibitors for the treatment of herpesviridae infected individuals” (priority 2002, published 2007)
Where a SMILES comes first, the peptide text is derived from it. The star is where a group is joined. Cbz = O=C(OCc1ccccc1)*

System: HCMV AD169
Assay: HCMV AD169 replication in human embryonal lung fibroblasts (CPE / IE staining, day 5 p.i.)
Type: cell-based, human cytomegalovirus
Description: Human embryonal lung fibroblasts (HELF), one of the target cells of HCMV in vivo, are fully permissive for HCMV replication in vitro. For infection experiments the laboratory adapted strain AD169 was propagated on HELFs. Virus stocks prepared from the overlay of infected cells showing 100% cytopathic effect (CPE) by ultra centrifugation were stored in liquid N2. Confluent HELF monolayer in 50 cm^2 flasks were infected with AD169 at a multiplicity of infection (M.O.I.) of 0.01. Adsorption of the virus was allowed for 1 hour at 37° C. After that the monolayer was overlayed with MEM containing 4.5% FCS. Medium was free of or substituted with the proteasome inhibitor at the indicated concentration. Virus cultures were cultivated for 5 days without changing the medium. On day five p.i. virus replication, was quantified by the number of CPE visible in inverse light microscope. For quantification cells were stained with an HCMV-specific antibody recognising the IE proteins IE1 and IE2 (clone E13, Harlan Sera-tab, Loughborough, GB, 1:5000), goat anti-mouse HRP-conjugated IgG (1:4000; Boehringer Mannheim, Indianapolis, Ind., USA) as secondary antibody and the AEC staining kit (Sigma, Germany) which gives a reed nuclear staining of infected cells.
Granulocyte/monocyte progenitor like HL-60 cells (ACC CCL 240) were grown in RPMI 1640 medium supplemented with 10% foetal calf serum (FCS, both from Biochrom, Germany and certified to be endotoxin free). Permissive human embryonal lung fibroblasts (HELF) were grown as monolayer in Dulbecco's modified Eagle's medium (BioWhittaker Europa, Belgium) containing 2.0% FCS. Virus stocks of HCMV strain AD169. of laboratory-derived ganciclovir (GCV)-resistant viruses XbaF 4-3-1 and 1117′ 3-1-2 (both are kindly provided from K. K. Biron, Burroughs Wellcome Colo.), HSV 1, strain K, and HSV 2, strain DG (both are patients isolates from the strain collection of this institute) were prepared from the supernatant of infected cell cultures and stored in liquid nitrogen. […]

## CC(C)C[C@@H](C=O)NC(=O)[C@H](CC(C)C)NC(=O)[C@H](CC(C)C)NC(=O)OCc1ccccc1 [MG-132, N-carbobenzoxy-L-leucinyl-L-leucinyl-L-leucinal] (Cbz-Leu-Leu-Leu-aldehyde)
0.01 μg/ml (0.016 μM), AD169, HELF
  effect on virus replication: no effect
0.1 μg/ml (0.21 μM)
  number of IE-positive cells per foci compared with the untreated control: about 50%
0.2 μg/ml (0.42 μM), untreated 50
  number of virus-infected (IE-positive) cells per focus: 7 cells
